From PubChem BioAssay AID330 (DTP/NCI, 2004)
“And” between values parts separate entries of the source, which are not always exact repeats. Identical values can stand only once. Toxic doses and inconclusive results are not listed. How the source made its calls: active means survival T/C of 150% or more; inactive means T/C below 125% in these data.

Test system: P388 leukemia ip, CD2F1 mice, survival T/C
Experiment: NCI In Vivo Anticancer Drug Screen. Data for tumor model P388 Leukemia (intraperitoneal) in CD2F1 (CDF1) mice
Conditions: endpoint: median survival time, higher = longer survival
Procedure, shortened: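 Mice carrying the transplanted tumor received test compound or vehicle. Survival was recorded in each group, and the value is the treated-group measurement divided by that of the vehicle-treated control group.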

[1] = dose: 100.0 mg/kg/injection, schedule: Q01DX009 (ip), vehicle: saline with Tween-80
[2] = dose: 50.0 mg/kg/injection, schedule: Q01DX005 (ip), vehicle: saline with Tween-80
[3] = dose: 100.0 mg/kg/injection, schedule: Q01DX005 (ip), vehicle: saline with Tween-80
[4] = dose: 200.0 mg/kg/injection, schedule: Q01DX005 (ip), vehicle: saline with Tween-80
[5] = dose: 50.0 mg/kg/injection, schedule: Q01DX009 (ip), vehicle: Klucel (hydroxypropylcellulose) (HPC)
[6] = dose: 100.0 mg/kg/injection, schedule: Q01DX009 (ip), vehicle: Klucel (hydroxypropylcellulose) (HPC)
[7] = dose: 200.0 mg/kg/injection, schedule: Q01DX009 (ip), vehicle: Klucel (hydroxypropylcellulose) (HPC)
[8] = dose: 60.0 mg/kg/injection, schedule: Q01DX005 (ip), vehicle: saline with Tween-80
[9] = dose: 120.0 mg/kg/injection, schedule: Q01DX005 (ip), vehicle: saline with Tween-80
[10] = dose: 240.0 mg/kg/injection, schedule: Q01DX005 (ip), vehicle: saline with Tween-80

Measured: T/C

COc1ccc(/C(=C/c2c(C(=O)O)oc3ccccc23)c2ccccc2)cc1
inactive: dose: 100.0 mg/kg/injection, schedule: Q01DX001 (ip), vehicle: saline with Tween-80 97 % of control | dose: 200.0 mg/kg/injection, schedule: Q01DX001 (ip), vehicle: saline with Tween-80 99 % of control

CC(c1ccccc1)C1NC(=O)NC1=O (configuration not stated)
inactive: dose: 25.0 mg/kg/injection, schedule: Q01DX009 (ip), vehicle: saline with Tween-80 117 % of control | dose: 50.0 mg/kg/injection, schedule: Q01DX009 (ip), vehicle: saline with Tween-80 106 % of control | [1] 106 % of control

NC(=O)CCC1CC(=O)c2ccccc2C1 (configuration not stated)
inactive: dose: 100.0 mg/kg/injection, schedule: Q01DX001 (ip), vehicle: Klucel (hydroxypropylcellulose) (HPC) 94 % of control | dose: 200.0 mg/kg/injection, schedule: Q01DX001 (ip), vehicle: Klucel (hydroxypropylcellulose) (HPC) 108 % of control | dose: 400.0 mg/kg/injection, schedule: Q01DX001 (ip), vehicle: Klucel (hydroxypropylcellulose) (HPC) 92 % of control

CC1=CC(=O)C(C(C)C)=CC1=O
inactive: dose: 0.75 mg/kg/injection, schedule: Q01DX009 (ip), vehicle: saline with Tween-80 100 % of control | dose: 1.5 mg/kg/injection, schedule: Q01DX009 (ip), vehicle: saline with Tween-80 104 % of control | dose: 3.0 mg/kg/injection, schedule: Q01DX009 (ip), vehicle: saline with Tween-80 104 % of control

C[N+]1(C)CCC2=CC(=O)CC(c3ccccc3)C2C1 (configuration not stated)
inactive: [2] 100 % of control | [3] 98 % of control | [4] 103 % of control

CCCCCCCCCCCCCCN1CCS(=O)(=O)CC1
inactive: [5] 89 % of control | [6] 91 % of control | [7] 90 % of control

COc1ccc(C(=O)O)c(N)c1
inactive: [1] 90 % of control | dose: 200.0 mg/kg/injection, schedule: Q01DX009 (ip), vehicle: saline with Tween-80 95 % of control | dose: 400.0 mg/kg/injection, schedule: Q01DX009 (ip), vehicle: saline with Tween-80 109 % of control

COc1ccc(N(C)C(=O)/C=C/N2CCCCC2)cc1
inactive: dose: 12.5 mg/kg/injection, schedule: Q01DX005 (ip), vehicle: Klucel (hydroxypropylcellulose) (HPC) 107 % of control | dose: 25.0 mg/kg/injection, schedule: Q01DX005 (ip), vehicle: Klucel (hydroxypropylcellulose) (HPC) 98 % of control | dose: 50.0 mg/kg/injection, schedule: Q01DX005 (ip), vehicle: Klucel (hydroxypropylcellulose) (HPC) 114 % of control and 98 % of control | dose: 100.0 mg/kg/injection, schedule: Q01DX005 (ip), vehicle: Klucel (hydroxypropylcellulose) (HPC) 124 % of control and 96 % of control | dose: 200.0 mg/kg/injection, schedule: Q01DX005 (ip), vehicle: Klucel (hydroxypropylcellulose) (HPC) 109 % of control

C=C(C)C12CC(C)C34OC(CCCCCCCCC)(OC1C3C1OC1(CO)C(O)C1(O)C(=O)C(C)=CC14)O2 (configuration not stated)
inactive: dose: 3.0 micrograms/kg/injection, schedule: Q01DX009 (ip), vehicle: saline + alcohol 107 % of control | dose: 5.0 micrograms/kg/injection, schedule: Q01DX009 (ip), vehicle: saline + alcohol 109 % of control | dose: 10.0 micrograms/kg/injection, schedule: Q01DX009 (ip), vehicle: saline + alcohol 105 % of control | dose: 20.0 micrograms/kg/injection, schedule: Q01DX009 (ip), vehicle: saline + alcohol 109 % of control | dose: 40.0 micrograms/kg/injection, schedule: Q01DX009 (ip), vehicle: saline + alcohol 116 % of control

Nc1ncnc2ncn(CC(O)CN(CCO)CCO)c12 (configuration not stated)
inactive: dose: 60.0 mg/kg/injection, schedule: Q01DX005 (ip), vehicle: Klucel (hydroxypropylcellulose) (HPC) 100 % of control | dose: 120.0 mg/kg/injection, schedule: Q01DX005 (ip), vehicle: Klucel (hydroxypropylcellulose) (HPC) 97 % of control | dose: 240.0 mg/kg/injection, schedule: Q01DX005 (ip), vehicle: Klucel (hydroxypropylcellulose) (HPC) 95 % of control

O=C(O)/C=C\C(=O)Nc1ccccc1NC(=O)/C=C/C(=O)O
inactive: dose: 100.0 mg/kg/injection, schedule: Q04DX003 (ip), vehicle: saline 91 % of control | dose: 200.0 mg/kg/injection, schedule: Q04DX003 (ip), vehicle: saline 100 % of control | dose: 400.0 mg/kg/injection, schedule: Q04DX003 (ip), vehicle: saline 87 % of control

O=CNc1ccc(Cl)cc1C(=O)c1ccccc1
inactive: [5] 108 % of control | [6] 100 % of control | [7] 95 % of control

O=C1CC(Cl)(CS(F)(F)(F)(F)F)O1 (configuration not stated)
inactive: dose: 12.5 mg/kg/injection, schedule: Q01DX005 (ip), vehicle: saline + alcohol 100 % of control | dose: 12.5 mg/kg/injection, schedule: Q01DX005 (ip), vehicle: saline with Tween-80 104 % of control | dose: 25.0 mg/kg/injection, schedule: Q01DX005 (ip), vehicle: saline + alcohol 103 % of control | dose: 25.0 mg/kg/injection, schedule: Q01DX005 (ip), vehicle: saline with Tween-80 109 % of control | dose: 50.0 mg/kg/injection, schedule: Q01DX005 (ip), vehicle: saline + alcohol 99 % of control | [2] 110 % of control and 114 % of control

C(=C\c1ccccn1)/c1ccc(/C=C/c2ccccn2)cc1
inactive: [8] 98 % of control | [9] 103 % of control | [10] 97 % of control

Oc1cc2c(cc1C(c1ccc(F)cc1)N1CCCCC1)OCO2 (configuration not stated)
inactive: [8] 111 % of control | [9] 116 % of control | [10] 115 % of control

Nc1ncc(S(=O)(=O)c2ccc([N+](=O)[O-])cc2)c(N)n1
inactive: dose: 75.0 mg/kg/injection, schedule: Q01DX009 (ip), vehicle: suspension in saline 96 % of control | dose: 150.0 mg/kg/injection, schedule: Q01DX009 (ip), vehicle: suspension in saline 98 % of control | dose: 300.0 mg/kg/injection, schedule: Q01DX009 (ip), vehicle: suspension in saline 92 % of control

C(=C/c1nc2ccccc2nc1CCN1CCCCC1)/c1ccc2c(c1)OCO2
inactive: [2] 100 % of control | [3] 102 % of control | [4] 102 % of control

O=C1c2nc[nH]c2C(=O)c2c1nc[nH]c2=O
inactive: dose: 3.75 mg/kg/injection, schedule: Q01DX005 (ip), vehicle: other 101 % of control | dose: 7.5 mg/kg/injection, schedule: Q01DX005 (ip), vehicle: other 100 % of control | dose: 15.0 mg/kg/injection, schedule: Q01DX005 (ip), vehicle: other 106 % of control | dose: 30.0 mg/kg/injection, schedule: Q01DX005 (ip), vehicle: other 102 % of control

O=c1oc2c(c(N(c3ccccc3)c3ccccc3)c1Cl)Cc1ccccc1CC2
inactive: dose: 50.0 mg/kg/injection, schedule: Q04DX003 (ip), vehicle: Klucel (hydroxypropylcellulose) (HPC) 95 % of control | dose: 100.0 mg/kg/injection, schedule: Q04DX003 (ip), vehicle: Klucel (hydroxypropylcellulose) (HPC) 92 % of control | dose: 200.0 mg/kg/injection, schedule: Q04DX003 (ip), vehicle: Klucel (hydroxypropylcellulose) (HPC) 91 % of control

CC1(C)C=C(C(Br)c2ccccc2)C(=O)c2ccccc21 (configuration not stated)
inactive: dose: 25.0 mg/kg/injection, schedule: Q01DX009 (ip), vehicle: other 100 % of control | dose: 44.0 mg/kg/injection, schedule: Q01DX009 (ip), vehicle: other 112 % of control | dose: 50.0 mg/kg/injection, schedule: Q01DX009 (ip), vehicle: other 118 % of control | dose: 150.0 mg/kg/injection, schedule: Q01DX009 (ip), vehicle: other 121 % of control | dose: 200.0 mg/kg/injection, schedule: Q01DX009 (ip), vehicle: other 116 % of control

COc1ccc(-c2cc3c(c4cc(OC)ccc24)C(=O)OC3=O)cc1
inactive: [8] 93 % of control | [9] 97 % of control | [10] 98 % of control
